Converted amounts (≈) assume the structure as drawn.
How the values were obtained:
physchem = conditions: kinetic from dmso stock
Summary of the method: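 DMSO doubling dilutions were diluted twenty-fold into 100 mM citrate (pH 4), PBS (pH 7.4) or carbonate-bicarbonate (pH 9). After 24 h equilibration at room temperature, absorbance was read at 620 nm. The reported value is the highest concentration without measurable precipitate.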

[1] = tested on: Staphylococcus aureus (Isolate ID ATCC 29213); test: Antibacterial activity, MIC, S. aureus; type: cell-based; conditions: Staphylococcus aureus, ATCC29213, Gram positive strain; broth microdilution or agar dilution
Summary of the method: (§1)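 Per CLSI standard M7-A7, minimum inhibitory concentrations were measured by agar dilution or by broth microdilution.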

[2] = tested on: Enterococcus faecalis (Isolate ID ATCC 29212); test: Antibacterial activity, MIC, E. faecalis; type: cell-based; conditions: Enterococcus faecalis, ATCC29212; Gram positive strain; broth microdilution or agar dilution
Summary of the method: as §1

[3] = tested on: Streptococcus pyogenes (Isolate ID ATCC 51339); test: Antibacterial activity, MIC, S. pyogenes; type: cell-based; conditions: Streptococcus pyogenes, ATCC51339, Gram positive strain; broth microdilution or agar dilution
Summary of the method: as §1

[4] = tested on: Haemophilus influenzae (Isolate ID ATCC 49247); test: Antibacterial activity, MIC, H. influenzae; type: cell-based; conditions: Haemophilus influenzae, ATCC49247; Gram negative strain; broth microdilution or agar dilution
Summary of the method: as §1

[5] = pH 7.4, aqueous buffer, Solubility (pH 7.4)
[6] = pH 7.4, aqueous buffer, Solubility Range
[7] = pH 9, aqueous buffer, Max Solubility
[8] = pH 9, aqueous buffer, Solubility Range (maximum solubility)
[9] = pH 7.4, aqueous buffer, Max Solubility
[10] = pH 7.4, aqueous buffer, Solubility Range (maximum solubility)

Compound | solubility at 24 h (physchem; [5]) [µg/mL] | solubility at 24 h (physchem; [6]) [µg/mL] | solubility at 24 h (physchem; [7]) [µg/mL] | solubility at 24 h (physchem; [8]) [µg/mL] | MIC [1] [µg/mL] | MIC [2] [µg/mL] | MIC [3] [µg/mL] | MIC [4] [µg/mL] | solubility at 24 h (physchem; [9]) [µg/mL] | solubility at 24 h (physchem; [10]) [µg/mL]
CCNC(=O)Nc1nc2cc(-c3cnc(N4CCC(C)(C(=O)O)CC4)nc3)cc(-c3nccc(OC)c3F)c2s1 [Compound 55] | 400 (≈ 707 µM) | 400 to 800 (≈ 707 to 1410 µM) | ≥ 800 | > 800 | ≤ 0.25 | ≤ 0.25 | ≤ 0.25 | 0.25 to 1 (≈ 0.442 to 1.77 µM) | – | –
CCNC(=O)Nc1nc2cc(-c3cnc(N4CCC(C)(C(=O)O)CC4)nc3)cc(-c3cc(=O)n(C(C)C)cn3)c2s1 [Compound 57] | 200 (≈ 347 µM) | 12.5 to 400 (≈ 21.7 to 694 µM) | 400 (≈ 694 µM) | 400 to 800 (≈ 694 to 1390 µM) | 1 to 16 (≈ 1.73 to 27.7 µM) | 0.25 to 1 (≈ 0.434 to 1.73 µM) | 0.25 to 1 (≈ 0.434 to 1.73 µM) | 1 to 16 (≈ 1.73 to 27.7 µM) | – | –
CCNC(=O)Nc1nc2cc(-c3cnc(N4CCC(C)(C(=O)O)CC4)nc3)cc(-c3ccc(C#N)c(C)n3)c2s1 [Compound 58] | 25 (≈ 44.9 µM) | 12.5 to 400 (≈ 22.5 to 719 µM) | 50 (≈ 89.8 µM) | 12.5 to 400 (≈ 22.5 to 719 µM) | ≤ 0.25 | ≤ 0.25 | ≤ 0.25 | 1 to 16 (≈ 1.8 to 28.7 µM) | – | –
CCNC(=O)Nc1nc2cc(-c3cnc(N4CCC(C)(C(=O)O)CC4)nc3)cc(-c3ncc(CC)cn3)c2s1 [Compound 60] | 12.5 (≈ 22.9 µM) | 12.5 to 400 (≈ 22.9 to 732 µM) | 400 (≈ 732 µM) | 400 to 800 (≈ 732 to 1460 µM) | ≤ 0.25 | ≤ 0.25 | ≤ 0.25 | 0.25 to 1 (≈ 0.457 to 1.83 µM) | – | –
CCNC(=O)Nc1nc2cc(-c3cnc(N4CCC(C)(C(=O)O)CC4)nc3)cc(-c3ncc(C#N)cc3F)c2s1 [Compound 63] | 400 (≈ 714 µM) | 400 to 800 (≈ 714 to 1430 µM) | ≥ 800 | > 800 | ≤ 0.25 | ≤ 0.25 | ≤ 0.25 | 1 to 16 (≈ 1.78 to 28.5 µM) | – | –
CCNC(=O)Nc1nc2cc(-c3cnc(N4CCC(C)(C(=O)O)CC4)nc3)cc(-c3nc(C)ccc3OC)c2s1 [Compound 64] | ≥ 800 | > 800 | – | – | ≤ 0.25 | ≤ 0.25 | ≤ 0.25 | 1 to 16 (≈ 1.78 to 28.5 µM) | ≥ 800 | > 800

The next lines start with the values.

solubility at 24 h (physchem; [5]) [µg/mL] | solubility at 24 h (physchem; [6]) [µg/mL] | solubility at 24 h (physchem; [7]) [µg/mL] | solubility at 24 h (physchem; [8]) [µg/mL] | MIC [1] [µg/mL] | MIC [2] [µg/mL] | MIC [3] [µg/mL] | MIC [4] [µg/mL] | solubility at 24 h (physchem; [9]) [µg/mL] | solubility at 24 h (physchem; [10]) [µg/mL] | Compound
25 (≈ 45.5 µM) | 12.5 to 400 (≈ 22.7 to 728 µM) | ≥ 800 | > 800 | ≤ 0.25 | ≤ 0.25 | ≤ 0.25 | 1 to 16 (≈ 1.82 to 29.1 µM) | – | – | CCNC(=O)Nc1nc2cc(-c3cnc(N4CCC(C)(C(=O)O)CC4)nc3)cc(-c3ccc(F)c(C)n3)c2s1 [Compound 53]
≥ 800 | > 800 | – | – | ≤ 0.25 | ≤ 0.25 | ≤ 0.25 | 1 to 16 (≈ 1.81 to 28.9 µM) | ≥ 800 | > 800 | CCNC(=O)Nc1nc2cc(-c3cnc(N4CCC(C)(C(=O)O)CC4)nc3)cc(-c3ncc(F)cc3F)c2s1 [Compound 54]
≥ 800 | > 800 | – | – | ≤ 0.25 | ≤ 0.25 | ≤ 0.25 | 0.25 to 1 (≈ 0.456 to 1.82 µM) | ≥ 800 | > 800 | CCNC(=O)Nc1nc2cc(-c3cnc(N4CCC(C)(C(=O)O)CC4)nc3)cc(-c3cnc(OC)cn3)c2s1 [Compound 56]
≥ 800 | > 800 | – | – | ≤ 0.25 | ≤ 0.25 | ≤ 0.25 | ≤ 0.25 | ≥ 800 | > 800 | CCNC(=O)Nc1nc2cc(-c3cnc(N4CCC(C)(C(=O)O)CC4)nc3)cc(-c3ncc(C)cn3)c2s1 [Compound 59]
≥ 800 | > 800 | – | – | ≤ 0.25 | ≤ 0.25 | ≤ 0.25 | 1 to 16 (≈ 1.83 to 29.2 µM) | ≥ 800 | > 800 | CCNC(=O)Nc1nc2cc(-c3cnc(N4CCC(C)(C(=O)O)CC4)nc3)cc(-c3ncccc3OC)c2s1 [Compound 61]
≥ 800 | > 800 | – | – | 0.25 to 1 (≈ 0.444 to 1.78 µM) | ≤ 0.25 | 0.25 to 1 (≈ 0.444 to 1.78 µM) | 1 to 16 (≈ 1.78 to 28.4 µM) | ≥ 800 | > 800 | CCNC(=O)Nc1nc2cc(-c3cnc(N4CCC(C)(C(=O)O)CC4)nc3)cc(-c3nc(OC)ccc3N)c2s1 [Compound 62]

— patent US9181234B2, “Antibacterial compounds” (priority 2010, dated 2015)
